For one series, the system named is mouse adipocytes. Description: Glucose uptake in mouse adipocytes (FFC). The series is classed as cell-based. The following applies: for EC50 (FFC) rel. to HI: EC50 value expressed relative to that of human insulin in the same assay; for EC50: concentration needed for half maximal uptake of glucose in mouse adipocytes.
Series [1] concerns the target HIR +11 (human insulin receptor, B isoform) (Homo sapiens, UniProt P06213). Description: Binding of IM peptides to IR isoform HIR +11. Particulars: +11 (B) isoform. An excerpt: (§1) A number of IRBPs (S519; S557; S597; S636; S667; S733; S671; S660; S696; S574; S700; S626; and S726), some of which described in the prior patent documents, were applied to A and B isoforms (−11 and +11 isoforms) of the human, rat, and pig insulin receptors (HIR, RIR, and PIR) using standard methods.

For series [2], the target named is RIR +11 (rat insulin receptor, B isoform) (Rattus norvegicus, UniProt P15127). Description: Binding of IM peptides to IR isoform RIR +11. The following applies: +11 (B) isoform.
Sequence of RIR +11 (rat insulin receptor, B isoform) (P15127 27-759 limits assumed): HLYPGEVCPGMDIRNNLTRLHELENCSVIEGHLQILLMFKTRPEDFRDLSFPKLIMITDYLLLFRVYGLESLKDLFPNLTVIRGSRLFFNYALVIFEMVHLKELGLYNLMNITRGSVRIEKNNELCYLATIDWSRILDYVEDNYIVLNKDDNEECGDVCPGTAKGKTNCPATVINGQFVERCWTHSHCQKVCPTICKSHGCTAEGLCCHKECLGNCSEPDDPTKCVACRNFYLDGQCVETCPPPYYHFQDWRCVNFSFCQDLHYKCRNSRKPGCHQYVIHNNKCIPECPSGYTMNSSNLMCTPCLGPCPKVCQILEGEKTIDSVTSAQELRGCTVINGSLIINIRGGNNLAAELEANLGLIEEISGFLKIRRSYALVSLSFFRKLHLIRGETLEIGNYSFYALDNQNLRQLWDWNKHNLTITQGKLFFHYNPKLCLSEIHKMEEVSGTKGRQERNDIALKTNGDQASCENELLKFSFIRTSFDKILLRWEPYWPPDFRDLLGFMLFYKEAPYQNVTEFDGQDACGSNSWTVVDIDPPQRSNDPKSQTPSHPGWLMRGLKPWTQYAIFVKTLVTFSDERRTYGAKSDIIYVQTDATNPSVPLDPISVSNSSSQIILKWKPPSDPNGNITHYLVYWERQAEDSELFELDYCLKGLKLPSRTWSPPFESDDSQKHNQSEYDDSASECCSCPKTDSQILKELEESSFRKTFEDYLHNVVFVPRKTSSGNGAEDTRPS
Sequence of RIR +11 (rat insulin receptor, B isoform) (P15127 764-1383 partner limits assumed): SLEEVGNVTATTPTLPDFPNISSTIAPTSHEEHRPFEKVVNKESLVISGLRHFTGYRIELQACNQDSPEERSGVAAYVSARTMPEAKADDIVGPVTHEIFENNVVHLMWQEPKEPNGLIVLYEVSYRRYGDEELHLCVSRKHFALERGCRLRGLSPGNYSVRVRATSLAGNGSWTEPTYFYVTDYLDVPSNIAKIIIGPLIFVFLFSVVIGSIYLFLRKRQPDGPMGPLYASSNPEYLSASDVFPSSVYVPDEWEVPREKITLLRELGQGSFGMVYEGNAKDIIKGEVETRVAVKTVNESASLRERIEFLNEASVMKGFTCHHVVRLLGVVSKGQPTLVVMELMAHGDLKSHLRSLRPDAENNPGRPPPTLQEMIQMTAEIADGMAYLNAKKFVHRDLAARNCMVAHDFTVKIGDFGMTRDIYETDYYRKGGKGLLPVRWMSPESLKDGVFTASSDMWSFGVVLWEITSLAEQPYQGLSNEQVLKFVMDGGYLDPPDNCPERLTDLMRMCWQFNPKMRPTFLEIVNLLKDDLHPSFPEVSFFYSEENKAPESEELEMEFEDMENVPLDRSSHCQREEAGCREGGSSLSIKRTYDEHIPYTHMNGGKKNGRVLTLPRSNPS
Description: as §1

In a further series the test system is wistar rats. The series is described as follows: Blood glucose after administration to wistar rats. The series is classed as in vivo, rat. On the procedure:
IRBP S667 was and human insulin were administered to wistar rats (S667 at 1.25 nmol/kg; 2.5 nmol/kg; and 5 nmol/kg; human insulin (HI) at 1.25 nmol/kg) using standard techniques, such as are described in the prior patent documents. Glucose measurements were taken 20 minutes prior to administration, at administration, and 20; 40; 60; 80; 120; and 180 minutes after administration. These measurements are compared in FIG. 3.

Another series deals with human IR (HIR) (Homo sapiens, UniProt P06213). The series is described as follows: Human IR affinity (Kd). The series is classed as binding. Particulars: Kd value expressed relative to that of human insulin in the same assay.
Series [3] concerns pepsin, elastase, chymotrypsin, trypsin, and carboxy-peptidase A. Description: Digestion with digestive enzymes (enzymatic stability). The series is classed as in vitro ADME. An excerpt: A novel IRBP was derived from S597 by introducing the unusual amino acid residues aminoisobutyric acid and diphenylalanine into the Xaa7 position of the N-terminal Formula 6-like IRBAAS sequence of S597 (in place of Ala) and into the Xaa1 position of the C-terminal Formula 1 sequence (in place of Phe).

Series [4] addresses HIR −11 (human insulin receptor, A isoform) (Homo sapiens, UniProt P06213). The series is described as follows: Binding of IM peptides to IR isoform HIR −11. Particulars: −11 (A) isoform.
Description: as §1

The target of series [5] is RIR −11 (rat insulin receptor, A isoform) (Rattus norvegicus, UniProt P15127). Description: Binding of IM peptides to IR isoform RIR −11. Particulars: −11 (A) isoform.
Description: as §1

Series [6] relates to PIR −11 (pig insulin receptor, A isoform). The series is described as follows: Binding of IM peptides to IR isoform PIR −11. The following applies: −11 (A) isoform.
Description: as §1

Series [7] deals with PIR +11 (pig insulin receptor, B isoform). Description: Binding of IM peptides to IR isoform PIR +11. Particulars: +11 (B) isoform.
Description: as §1

For series [8], the target named is insulin receptor on mouse adipocytes (mouse, UniProt P15208 28-1372). Description: cell-based or functional assay.
Sequence of insulin receptor on mouse adipocytes (P15208 28-1372): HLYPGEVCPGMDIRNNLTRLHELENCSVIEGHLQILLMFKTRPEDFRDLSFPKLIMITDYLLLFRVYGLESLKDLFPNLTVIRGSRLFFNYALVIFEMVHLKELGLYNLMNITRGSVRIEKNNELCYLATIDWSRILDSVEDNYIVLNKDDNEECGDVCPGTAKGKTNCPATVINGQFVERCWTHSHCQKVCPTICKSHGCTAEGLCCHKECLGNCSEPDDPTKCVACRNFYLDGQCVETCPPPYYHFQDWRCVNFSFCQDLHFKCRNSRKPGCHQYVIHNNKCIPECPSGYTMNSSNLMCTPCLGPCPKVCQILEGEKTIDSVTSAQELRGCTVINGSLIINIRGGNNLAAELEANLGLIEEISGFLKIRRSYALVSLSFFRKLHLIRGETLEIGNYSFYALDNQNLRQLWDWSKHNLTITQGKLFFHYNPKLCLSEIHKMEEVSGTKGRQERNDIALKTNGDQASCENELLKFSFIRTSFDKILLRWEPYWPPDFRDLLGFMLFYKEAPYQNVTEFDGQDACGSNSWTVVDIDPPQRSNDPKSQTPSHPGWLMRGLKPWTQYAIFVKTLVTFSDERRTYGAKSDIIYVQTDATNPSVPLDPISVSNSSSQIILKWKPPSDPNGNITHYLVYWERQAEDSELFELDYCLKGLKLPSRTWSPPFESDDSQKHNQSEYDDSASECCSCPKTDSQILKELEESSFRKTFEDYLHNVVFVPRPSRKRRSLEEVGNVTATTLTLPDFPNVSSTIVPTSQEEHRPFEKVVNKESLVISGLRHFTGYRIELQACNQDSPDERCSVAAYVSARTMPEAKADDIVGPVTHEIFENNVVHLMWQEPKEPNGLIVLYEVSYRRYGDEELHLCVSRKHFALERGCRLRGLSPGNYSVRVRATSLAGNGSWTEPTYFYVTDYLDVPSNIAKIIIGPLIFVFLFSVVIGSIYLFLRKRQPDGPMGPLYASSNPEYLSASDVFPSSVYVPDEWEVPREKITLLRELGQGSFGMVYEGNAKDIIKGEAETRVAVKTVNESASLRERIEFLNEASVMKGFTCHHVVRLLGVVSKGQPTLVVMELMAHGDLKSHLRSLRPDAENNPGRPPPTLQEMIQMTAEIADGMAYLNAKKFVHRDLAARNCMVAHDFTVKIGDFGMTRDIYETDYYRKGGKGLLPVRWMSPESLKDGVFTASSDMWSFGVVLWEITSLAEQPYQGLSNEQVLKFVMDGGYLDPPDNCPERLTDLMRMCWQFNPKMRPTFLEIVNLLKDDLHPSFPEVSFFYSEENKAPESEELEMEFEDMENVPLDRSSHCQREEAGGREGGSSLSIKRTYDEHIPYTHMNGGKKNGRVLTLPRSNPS
For series [9], the target named is human insulin receptor isoform with exon 11 (human) (UniProt P06213). Description: receptor binding, standard methods (FIG. 2).
Series [10] deals with rat insulin receptor isoform with exon 11 (rat) (UniProt P15127). Description: receptor binding, standard methods (FIG. 2).
Sequence of rat insulin receptor isoform with exon 11 (rat) (P15127 27-1383, stated change not applied): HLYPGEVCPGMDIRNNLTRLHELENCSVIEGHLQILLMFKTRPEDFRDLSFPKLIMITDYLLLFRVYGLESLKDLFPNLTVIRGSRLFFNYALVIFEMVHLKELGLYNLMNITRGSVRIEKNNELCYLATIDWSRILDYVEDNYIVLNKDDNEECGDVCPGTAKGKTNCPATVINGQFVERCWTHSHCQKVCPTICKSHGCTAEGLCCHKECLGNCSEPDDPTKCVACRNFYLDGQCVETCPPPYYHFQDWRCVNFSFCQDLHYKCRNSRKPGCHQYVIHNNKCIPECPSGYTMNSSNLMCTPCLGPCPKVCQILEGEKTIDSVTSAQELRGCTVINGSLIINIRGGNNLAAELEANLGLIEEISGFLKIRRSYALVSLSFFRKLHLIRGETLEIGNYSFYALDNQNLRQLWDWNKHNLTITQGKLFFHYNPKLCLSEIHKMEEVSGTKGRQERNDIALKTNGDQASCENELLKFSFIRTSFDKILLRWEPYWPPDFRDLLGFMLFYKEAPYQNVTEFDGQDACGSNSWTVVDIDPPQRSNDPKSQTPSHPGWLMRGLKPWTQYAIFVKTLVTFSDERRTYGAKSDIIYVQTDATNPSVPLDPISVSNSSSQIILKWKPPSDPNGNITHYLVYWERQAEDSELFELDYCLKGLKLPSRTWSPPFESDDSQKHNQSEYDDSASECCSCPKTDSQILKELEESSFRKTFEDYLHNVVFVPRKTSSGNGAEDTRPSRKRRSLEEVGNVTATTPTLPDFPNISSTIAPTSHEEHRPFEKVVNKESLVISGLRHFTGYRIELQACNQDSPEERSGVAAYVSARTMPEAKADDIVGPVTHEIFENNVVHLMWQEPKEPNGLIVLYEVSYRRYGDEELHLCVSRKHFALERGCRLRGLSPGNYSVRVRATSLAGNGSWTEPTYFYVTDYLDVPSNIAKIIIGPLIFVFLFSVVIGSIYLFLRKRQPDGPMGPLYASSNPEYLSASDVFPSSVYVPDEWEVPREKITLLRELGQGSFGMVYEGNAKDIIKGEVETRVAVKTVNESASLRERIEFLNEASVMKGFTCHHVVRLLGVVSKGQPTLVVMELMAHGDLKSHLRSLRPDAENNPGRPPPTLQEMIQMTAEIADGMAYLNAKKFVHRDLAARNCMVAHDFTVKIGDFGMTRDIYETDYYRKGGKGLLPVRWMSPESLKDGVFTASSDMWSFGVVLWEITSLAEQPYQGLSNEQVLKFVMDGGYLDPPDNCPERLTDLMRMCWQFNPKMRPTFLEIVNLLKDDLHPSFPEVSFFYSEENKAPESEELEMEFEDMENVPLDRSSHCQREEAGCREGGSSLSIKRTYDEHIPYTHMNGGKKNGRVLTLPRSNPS
Series [11] deals with T1, human insulin receptor isoform without exon 11 (human, UniProt P06213-2 28-1370, limits assumed).
T1 construct: also called HIR-11; HIR - 11
The series is described as follows: receptor binding, standard methods (FIG. 2).
Description: as §1

Series [12] deals with T2, rat insulin receptor isoform without exon 11 (rat, UniProt P15127-2 27-1371, limits assumed).
T2 construct: also called RIR-11; RIR - 11
Description: receptor binding, standard methods (FIG. 2).
Description: as §1

Series [13] addresses T3, pig insulin receptor isoform without exon 11 (pig, UniProt F1SCK8 28-746; F1SCK8 751-1370).
T3 construct: also called PIR-11; PIR - 11
The series is described as follows: receptor binding, standard methods (FIG. 2).
Description: as §1

Series [14] deals with T4, pig insulin receptor isoform with exon 11 (pig, UniProt F1SCL0 28-758; F1SCL0 763-1382).
T4 construct: also called PIR+11; PIR + 11
Description: receptor binding, standard methods (FIG. 2).
Description: as §1

From patent publication US20100298213A1, “Pharmaceutically Active Insulin Receptor-Modulating Molecules” (Novo Nordisk A/S, priority 2004, published 2010) come the findings set out here.

Square brackets hold non-standard residues; d marks the D form. Ends that are not written are not given here. Dip = N[C@H](C(=O)O)C(c1ccccc1)c1ccccc1; Aib = CC(C)(N)C(=O)O

What is called EC50 is the concentration at which the effect is half-maximal.

Turning to “Ac-SLE-Aib-EW-Aib-QIQCEVWGRGCPSESFYDWFERQL [compound 663]”, in the series with mouse adipocytes, the “EC50 (FFC) rel. to HI” value stood at 15% and the EC50 stood at 0.43 nM.
Regarding “SLEEEWAQIECEVYGRGCPSVRGFQGGTVWPGYEWLRNAAKK [compound 626]”, in series [1], the “relative affinity HIR +11” value is recorded as 78. Also, the “relative affinity RIR +11” value in series [2] was 12.
As to SLEEEWAQIEAEVWGRGAPSESFYDWFERQLG [S574], the “relative affinity HIR +11” value in series [1] stood at 8.2. Moreover, the “relative affinity RIR +11” value in [2] is 2.
For “SLEEEWAQIQCEVWGRGCPSESFYGWFERQL [compound 667]”, in series [1], the “relative affinity HIR +11” value is reported as 127. Moreover, in [2], the “relative affinity RIR +11” value came to 112. Further, the “dose dependence of glucose level modulation” value with wistar rats (1.25, 2.5, 5 nmol/kg) was “dose-dependent IR-mediated glucose level modulation”. Besides, in the series on wistar rats (S667 1.25, 2.5, 5 nmol/kg, HI 1.25 nmol/kg, up to 180 minutes), the “blood glucose lowering compared with human insulin” value was “lower blood glucose to levels similar to human insulin at similar dosages”.
Regarding “SLEEEWAQIQCEVWGRGCPSESFYGWFERQLG [compound 733]”, the “relative affinity HIR +11” value in [1] came out at 290. The “relative affinity RIR +11” value in series [2] is 211.
Regarding “Ac-SLEEEW-Aib-QIQCEVWGRPCPSEP-Dip-YGWFHEQLGPP (Ac-SLEEEW[Aib]QIQCEVWGRPCPSEP[Dip]YGWFHEQLGPP; cysteine pairing not given here) [compound 873]”, the “Kd (HIR) rel. to HI” value with human IR (HIR) is listed as 20%. For the same molecule, the “stabilization towards all of the relevant enzymes as compared to S597” value in [3] was “greater than 100 fold”.
In the case of “GSLDESFYDWFERQLG-(pox)2-SLEEEWAQIQCEVWGRGCPSY [compound 675]”, in the series on mouse adipocytes, the “EC50 (FFC) rel. to HI” value worked out at 25% and it took 0.26 nM to reach a half-maximal effect (EC50).
Take “SLEEEWAQIQEEVWGRGEPSESFYDWFERQL [compound 700]”: in series [4], the “relative affinity HIR −11” value worked out at 70. Moreover, in [1], the “relative affinity HIR +11” value amounted to 53. Also, the “relative affinity RIR −11” value in series [5] came out at 10. For the same molecule, the “relative affinity RIR +11” value in series [2] was 13. For the same molecule, the “relative affinity PIR −11” value in series [6] stood at 1.4. In addition, the “relative affinity PIR +11” value in [7] is reported as 4.3.
With “SLEEEWAQIECEVWGRGCPSEGFYNAIELLS [compound 726]”, in [1], the “relative affinity HIR +11” value came out at 121. The “relative affinity RIR +11” value in [2] stood at 7.7.
“SLEEEWAQVECEVYERGCPSESFYDWFERQL [compound 696]”: the “relative affinity HIR +11” value in series [1] is on record as 3.1. Further, in series [2], the “relative affinity RIR +11” value was 0.2.
On to “SLEEEWAQIQCEVWGRGCPSESFYDWFERQL [compound 636]”, for which the “relative affinity HIR +11” value in series [1] was 117. In series [2], the “relative affinity RIR +11” value was determined as 79.
As to SLEEEWAQIECEVYGRGCPSVRGFQGGTVWPGYEWLRNAAKK [S626], the “EC50 (FFC)” value in series [8] was 9.7 nM. The “EC50 (FFC) rel. to HI” value in series [8] was found to be 0.4%. In addition, the relative affinity in series [9] amounted to 78; in [10], 12; in series [11], 59; in series [12], 11; in series [13], 1; in [14], 3.
On to Ac-SLEEEWAQIECEVWGRGCPSEGFYNAIELLS (cysteine pairing not given here) [S726], for which, in [8], the “EC50 (FFC)” value was determined as 19 nM. In addition, the “EC50 (FFC) rel. to HI” value in series [8] came out at 0.3%. Further, the relative affinity in series [9] came out at 121; in [10], 7.7; in [11], 83; in series [12] it was 13; in [13] it was 1.3; in series [14], 5.9.
